The structures appear in SMILES notation.

In the first assay the test system is A549 cells. Briefly: Cell growth inhibition, A549. In kind it is cell-based, human. The following applies: A549, sodium salt form. The text has this: At this respect, concentrations which inhibit growth of tumour cells (IC50) are lower for the enantiomer S ([−]) in all studied tumour lines (Table 5). […] In all of the cases, the molecules employed were in the form of sodium salt.
Take `CC/C=C\C/C=C\C/C=C\CCCCCCC(O)C(=O)O` (stereo not drawn) [[+]2OH18:3a] [2-hydroxy-α-linoleic acid]: the concentration for half-maximal inhibition (IC50) turned out to be 351 ± 22.7 µM.
Same read-out and setting: for `CC/C=C\C/C=C\C/C=C\CCCCCCC(O)C(=O)O` (stereo not drawn) [[−]2OH18:3a] [2-hydroxy-α-linoleic acid] the value was 146 ± 10.9 µM; for `CCCCC/C=C\C/C=C\C/C=C\CCCC(O)C(=O)O` (stereo not drawn) [[−]2OH18:3g] [2-hydroxy-γ-linoleic acid], 155 ± 7.5 µM.
With `CCCCC/C=C\C/C=C\CCCCCCC(O)C(=O)O` (stereo not drawn) [[+]2OH18:2] [2-hydroxylinoleic acid], the IC50 worked out at 186 ± 21.9 µM.
Regarding `CCCCC/C=C\C/C=C\CCCCCCC(O)C(=O)O` (stereo not drawn) [[−]2OH18:2] [2-hydroxylinoleic acid], the IC50 was determined as 69.9 ± 11.2 µM.
Same read-out and setting: for `CCCCC/C=C\C/C=C\C/C=C\CCCC(O)C(=O)O` (racemic) [Racemic 2OH18:3g, 2-hydroxy-γ-linoleic acid] the value was 206 ± 21.7 µM.
On the same count and under the same terms, for `CC/C=C\C/C=C\C/C=C\CCCCCCC(O)C(=O)O` (racemic) [Racemic 2OH18:3a, 2-hydroxy-α-linoleic acid] the value was 219 ± 15.4 µM; for `CCCCCC/C=C\CCCCCCC(O)C(=O)O` (stereo not drawn) [[+]2OH16:1] [2-hydroxypalmitoleic acid], 299 ± 34.2 µM; for `CCCCC/C=C\C/C=C\C/C=C\CCCC(O)C(=O)O` (stereo not drawn) [[+]2OH18:3g] [2-hydroxy-γ-linoleic acid], 342 ± 31.5 µM.
Same read-out and setting: to `CCCCCC/C=C\CCCCCCC(O)C(=O)O` (stereo not drawn) [[−]2OH16:1] [2-hydroxypalmitoleic acid] belongs 110 ± 14 µM.

Staying with this assay, now noted: Homo sapiens, A549, A549, sodium salt form.
Take `CCCCCC/C=C\CCCCCCC(O)C(=O)O` (racemic) [Racemic 2OH16:1, 2-hydroxypalmitoleic acid]: the IC50 was found to be 193 ± 9.3 µM.
With `CCCCC/C=C\C/C=C\CCCCCCC(O)C(=O)O` (racemic) [Racemic 2OH18:2, 2-hydroxylinoleic acid], the IC50 was determined as 105 ± 4.1 µM.
